In patent US5292531A, “Dermatologial external agent” (Shiseido Company Ltd., priority 1990, dated 1994):
≈ marks a conversion by molar mass, not a printed value. Read-outs that look alike come from different tables or passages of the source.

Columns and labels:
[1] = tested on: Propionibacterium acnes standard strain (ATCC 11827); experiment: Minimum growth inhibitory concentration (MIC), GAM agar medium pH 7.3±0.1 (Test Example 1); format: cell-based
Method: The growth inhibitory effects of tetrahydroabietic acid salts against Acne bacterium, which is a Gram-positive anaerobic bacterium were evaluated as follows.
Using a GAM agar medium produced by Nissui K. K. as the medium, after an adjustment of the pH of the medium to 7.3±0.1, a minimum growth inhibitory concentration (MIC) of sodium tetrahydroabietate and sodium salt of hydrogenated rosin, needed for a Propionibacterium acnes standard strain (ATCC 11827) was measured and evaluated.
As a Control, MIC's of substances generally known to have an antibacterial action (isopropylmethylphenol, berberine chloride, thioxolone, abietic acid) were also measured.

[2] = tested on: Propionibacterium avidum, ATCC 25577; experiment: Growth inhibitory band around filter paper disc (Test Example 2); format: cell-based; settings: 0.05 ml of 10% acetone solution on 8 mm disc, 37° C., 3 days, anaerobic
Method: Using an ABCM medium (Eikensha K. K.) as the antibacterial active medium, the medium was heated in an autoclave at a temperature of 115° C. for 15 minutes. A filter paper disc (8 mm.phi.) impregnated with 0.05 ml of 10% acetone solution of each sample was adhered to an agar plate to which Propionibacterium avidum, ATCC 25577 was previously inoculated and dispersed thereon, and anaerobically cultured at 37° C. for 3 days. The diameter of the transparent band (Propionibacterium avidum growth inhibitory band) formed around the filter paper upon completion of the culturing was measured, and the antibacterial power determined therefrom.

[3] = Cutibacterium acnes, ATCC11827, GAM agar medium, pH 7.3±0.1, read-out: MIC

MIC [1, 3] [µg/mL] | Compound | MIC ([1]; GAM agar medium, pH 7.3±0.1) [ppm] | Inhibitory band diameter [2] [mm] | further results
 | COc1ccc2cc3[n+](cc2c1OC)CCc1cc2c(cc1-3)OCO2 [Berberline chloride, berberine chloride] |  |  | MIC ([1]; Cutibacterium acnes, ATCC11827, pH 7.3): 100 µg/mL
50 (≈ 297 µM) | O=c1oc2cc(O)ccc2s1 [Thioxolone] |  |  | 
 | Cc1cc(O)ccc1C(C)C [Isopropylmethylphenol] | 100 |  | 
 | CC(C)[C@@H]1CC[C@H]2[C@@H](CC[C@@H]3[C@]2(C)CCC[C@@]3(C)C(=O)O)C1 [Tetrahydroabietic acid] | 3 | 18 | 
20 (≈ 66.1 µM) | CC(C)C1=CC2=CC[C@@H]3[C@](C)(CCC[C@@]3(C)C(=O)O)[C@H]2CC1 [Abietic acid] |  |  | zone of inhibition at 10 % ([2]; Cutibacterium avidum, ATCC25577, 72 h, read-out: Inhibitory band diameter): 15 mm
 | CC(C)C1CC[C@H]2C(CC[C@@H]3[C@]2(C)CCC[C@@]3(C)C(=O)[O-])C1.[Na+] (stereo partly shown) [Sodium tetrahydroabietate] | 5 | 17 | Antibacterial power compared with other antibacterial substances ([1]; Table 1, in words): far stronger antibacterial power than other antibacterial substances
